The assay concerns human chronic myelogenous leukemia (CML) K562 cell line. Description: Flow cytometry cell cycle phase distribution in leukemia cells. It is filed as cell-based. The settings on record: K562, 24 hours. The method, then:
The effect of compounds of the invention on cell proliferation in leukemia cells, in particular, the human chronic myelogenous leukemia (CML) K562 cell line, was tested using flow cytometry and trypan blue exclusion cell counting assays.
The human chronic myelogenous leukemia (CML) K562 cell line was obtained from American Type Culture Collection (ATCC) and cultured under specified conditions, as provided by ATCC. A Becton Dickinson FACSCalibur instrument was used for flow cytometry analyses. A CycleTEST PLUS DNA Reagent Kit (Cat. No. 340242, Becton Dickinson) was used in the study for cell staining. The standard operating procedure and a protocol for CycleTEST PLUS DNA Reagent Kit from Becton Dickinson have been followed to carry out the study. Briefly, flow cytometric analysis of the differentially stained CML K562 cell line was used to estimate the DNA content and cell cycle phase distribution of cells treated with various concentrations of the compound for 24 hours. […] Data analysis was carried out using the ModFit LT cell cycle data analysis program (Verity Software House, Topsham, Me. 04086, www.vsh.com). Cell viability test was performed using a Trypan Blue exclusion assay (Trypan Blue from Sigma, Cat No. T 0776) following procedures known to those skilled in the art.
For orientation: A flow cytometer gives signals particle by particle.

Turning to `COc1cc2c(cc1OC)-c1n[nH]c(Nc3cccc(F)c3)c1C2` [Compound 14, (3-Fluoro-phenyl)-(6,7-dimethoxy-2,4-dihydro-indeno[1,2-c]pyrazol-3-yl)-amine], the “Percent of cells at G0–G1” value (compound conc. 1 nM) is listed as 35%; the “Percent of cells at G0–G1” value (compound conc. 10 nM) was 31%; the “Percent of cells at G0–G1” value (compound conc. 100 nM) is given as 2%; the “Percent of cells at G0–G1” value (compound conc. 1000 nM) worked out at 3%; the “Percent of cells at G0–G1” value (compound conc. 10000 nM) is recorded as 5%. For the same molecule, the “Percent of cells at G2/M” value reads like this: (compound conc. 1 nM) 11%; (compound conc. 10 nM) 28%; (compound conc. 100 nM) 98%; (compound conc. 1000 nM) 93%; (compound conc. 10000 nM) 90%. The “Percent of cells at S phase” value was found to be 53% (compound conc. 1 nM); 41% (compound conc. 10 nM); 0% (compound conc. 100 nM); 4% (compound conc. 1000 nM); 5% (compound conc. 10000 nM).

For the origin of these results see patent publication US7196110B2, “N-substituted tricyclic 3-aminopyrazoles as inhibitors for the treatment of cell proliferative disorders” (Janssen Phamaceutica N.V., priority 2002, dated 2007).
